This is an account of results in ChEMBL document CHEMBL3102823, “Tetramic acid analogues produced by coculture of Saccharopolyspora erythraea with Fusarium pallidoroseum” (2014).

In one test the test system is Staphylococcus aureus. The test can be described thus: Antibacterial activity against Staphylococcus aureus by Kirby-Bauer disk diffusion assay. It is filed as functional. (A growth-free zone around the sample is the usual read-out of agar diffusion tests.)
The test system of test [1] is Saccharopolyspora erythraea. The test can be described thus: Antibacterial activity against Saccharopolyspora erythraea by Kirby-Bauer disk diffusion assay.
Test [2] can be described thus: (§1) Cytotoxicity against human NCI60 cells assessed as growth inhibition by SRB assay. It is filed as functional.
A further test relates to CCRF-CEM. The test can be described thus: Cytotoxicity against human CCRF-CEM cells assessed as growth inhibition by SRB assay. In kind it is functional. For orientation: The SRB assay estimates cell density from bound dye.
For a further test, the system named is NCI60. Described as §1. It is filed as functional.

The GI50 is the concentration that inhibits growth by half.

Calls of active or inactive are those of the source. The rule behind the calls is not given here.

Turning to `CN1C(=O)C(C(=O)[C@@]2(C)[C@@H]3CC[C@@H](CO)C[C@H]3C=C[C@H]2/C=C/CO)=C(O)C1CO` (mixture of isomers), the outcome (in the test with Staphylococcus aureus; in test [1]) was inactive. The GI50 in test [2] was above 20 µM.
Regarding `C/C=C/[C@@H]1C=C[C@@H]2C[C@@](C)(O)CC[C@H]2[C@]1(C)C(=O)C1=C(O)[C@H](CO)N(C)C1=O`, the “%max” value in the test on Staphylococcus aureus was “inactive”. Further, in test [1], the outcome was inactive. The 50% growth inhibitory concentration (GI50) in test [2] is above 20 µM.
With `C/C=C/C1C=C[C@@H]2C[C@H](CO)CC[C@H]2[C@]1(C)C(=O)C1=C(O)[C@H](CO)N(C)C1=O` (some centres undefined), the concentration for 50% growth inhibition (GI50) in test [2] was above 20 µM.
Take `C/C=C/[C@@H]1C=C[C@@H]2C[C@H](CO)CC[C@H]2[C@]1(C)C(=O)C1=C(O)[C@H](CO)NC1=O`: the outcome (in the test on Staphylococcus aureus; in test [1]) was inactive. Also, the GI50 in test [2] was above 20 µM.
For the compound `C/C=C/[C@@H]1C=C[C@@H]2C[C@H](C)CC[C@H]2[C@]1(C)/C(O)=C1/C(=O)[C@H](CO)N(C)C1=O`, the GI50 in the test with CCRF-CEM was found to be 0.144 µM. Besides, the MIC with Staphylococcus aureus is below 1.25 µg; in test [1], 2.5 µg. Also, the “growth inhibition (GI)” value with NCI60 was “Active”.
